From PubChem BioAssay (NCI)
Several values for one entry are separate records, joined by “and”; a condition that tells them apart may be missing. Identical values can stand only once.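 Assay format: 96-well plates, 48-hour exposure. GI50: concentration for 50% inhibition of growth. TGI: total growth inhibition.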 *1 amine or outer side, *2 acyl side, *3 side chain or, on linkers, in order; H or OH if unused. Where a SMILES comes first, the peptide text is derived from it. [ ]: non-standard residue; d: D form. X56 = CC[C@H](C)[C@H](OC(=O)[C@@H](C)[C@@H](CC)N[*:1])C(=O)[*:2]; X32 = C[C@H](N[*:1])C(=O)C(C)(C)C(=O)[*:2]; NMeY = CN[C@@H](Cc1ccc(O)cc1)C(=O)O; NMeL = CN[C@@H](CC(C)C)C(=O)O; NMeV = CN[C@H](C(=O)O)C(C)C

Experiments:
Test in all cases: DTP human tumour cell line panel, 48 h
SN12C renal = tested on: SN12C renal
UO-31 renal = tested on: UO-31 renal
OVCAR-3 ovarian = tested on: OVCAR-3 ovarian
UACC-62 melanoma = tested on: UACC-62 melanoma
A549 NSCLC = tested on: A549 NSCLC
MALME-3M melanoma = tested on: MALME-3M melanoma
IGROV1 ovarian = tested on: IGROV1 ovarian
DU-145 prostate = tested on: DU-145 prostate
NCI-H522 lung = tested on: NCI-H522 lung
HL-60(TB) leukemia = tested on: HL-60(TB) leukemia

SMILES	GI50 (SN12C renal) [µM]	TGI (SN12C renal)	TGI (UO-31 renal)	GI50 (OVCAR-3 ovarian) [µM]	TGI (OVCAR-3 ovarian)	GI50 (UACC-62 melanoma) [µM]	TGI (UACC-62 melanoma)	TGI (A549 NSCLC)	GI50 (MALME-3M melanoma) [µM]	GI50 (IGROV1 ovarian) [µM]	TGI (IGROV1 ovarian)	TGI (DU-145 prostate) [µM]	TGI (NCI-H522 lung) [µM]	TGI (MALME-3M melanoma) [µM]	TGI (HL-60(TB) leukemia) [µM]	GI50 (UO-31 renal) [µM]	GI50 (A549 NSCLC) [µM]	GI50 (NCI-H522 lung) [µM]	GI50 (HL-60(TB) leukemia) [µM]	GI50 (DU-145 prostate) [µM]
CC[C@H](C)[C@@H]1OC(=O)[C@@H](C)[C@@H](CC)NC(=O)[C@H](C)NC(=O)C(C)(C)C(=O)[C@H](C)NC(=O)[C@H](Cc2ccc(OC)cc2)N(C)C(=O)[C@H](C(C)C)N(C)C(=O)CNC(=O)[C@H](CC(C)C)N(C)C(=O)CNC1=O (cyclo(A[X56]G[NMeL]G[NMeV][NMeY](Me)[X32]))	0.0433	9.79 µM and 3.68 µM	0.383 µM and 0.428 µM	0.0304	0.197 µM and 0.307 µM	0.111	5.28 µM and 5.31 µM	3.19 µM and 6.15 µM	0.0304	0.0193	0.306 µM and 0.102 µM	7.04								
COc1cc(/C=C(\OC(C)=O)c2ccc3c(c2)OCO3)cc(OC)c1OC		88.1 µM	28.2 µM		49.2 µM		34.2 µM	> 100 µM			33.1 µM		50.2	59.7	> 100					
O=C(CC1C=CCS1(=O)=O)NCc1ccccc1 (stereo not drawn)		> 100 µM	> 100 µM		> 100 µM		> 100 µM	> 100 µM			> 100 µM	> 100	> 100		> 100					
CCOC(=O)/C(=C\c1ccc[nH]1)C(=O)c1ccccc1		> 100 µM	> 100 µM		> 100 µM		> 100 µM	> 100 µM					> 100	> 100	> 100					
CC/C=C/c1cc2cc[nH]c2c2c1C(C)C[C@@H]2C (stereo partly drawn)		35 µM	69.6 µM		40.5 µM		41.8 µM	> 100 µM			> 100 µM		40.4	> 100	58.3					
O=C(c1ccc(Cl)cc1)c1ccc(OCCSCCCCCCCCCCSCCOc2ccc(C(=O)c3ccc(Cl)cc3)cc2)cc1		> 100 µM	> 100 µM		> 100 µM		> 100 µM	> 100 µM			> 100 µM		> 100	> 100	> 100					
COc1ccc2c(c1)/C(=C/c1cc(OC)c(OC)c(OC)c1)C(=O)N2C	3.44	> 44.5 µM	> 55.7 µM	2.03	5.95 µM	2.37	> 24 µM	> 67.1 µM	2.87	1.9	5.31 µM		6.39	> 29.2	5.28	3.91	3.64	2.24	1.46	
N#Cc1c(N)nc(N2CCOCC2)c(C#N)c1-c1ccccc1Cl	35.8	> 100 µM	43.4 µM	17.3	87.1 µM	18.9	> 100 µM	> 100 µM		14.7	41.7 µM	> 100	2.81			14.5	66.5	0.0236		93.4
N#CC1C2CCC3(CC2CCN1C(=O)c1ccccc1)OCCO3 (stereo not drawn)		> 100 µM	> 100 µM		> 100 µM		> 100 µM	> 100 µM			> 100 µM			> 100	> 100					
